Data on 80 compounds can be found in publication PMC12040169 (PLOS Biology, 2025).

The nature of the first data set: in vitro. Conditions: human, hela cells.
Broadly, the viability is a read-out of living cells in per cent, often relative to untreated cells. With `COCCn1cc(C(=O)N2CCCC(CN(C)C)C2)c2ccccc21` (centres unmarked) [CBK281431], the viability at 28.5 h, 10 µM worked out at 91.5%.

The same data set, now with this note: human, hela cells, % viability.
`CCSc1nc2ccccc2n1C(=O)c1ccc(S(=O)(=O)N2CCCCCC2)cc1` [CBK265825]: the viability at 28.5 h, 10 µM was 91.6%.
Same read-out and setting: as for `NC(CCc1nc2ccccc2[nH]1)c1nc2ccccc2[nH]1` (centres unmarked) [CBK269970], the figure is 96.2%; as for `C(=N\c1ccc(Cc2ccncc2)cc1)/c1ccc(/C=N/c2ccc(Cc3ccncc3)cc2)cc1` [CBK262137], 97%.
As for `CC1CCCCN1CCCNC(=O)c1ccc(-c2nc(-c3ccc(C#N)cc3)cnc2N)cc1` (centres unmarked) [CBK107139], the viability at 28.5 h, 10 µM stood at 111%.
On to `Cc1nn(C)c(Cl)c1S(=O)(=O)Nc1ccnn1C` [CBK062072], for which the viability at 28.5 h, 10 µM turned out to be 85.6%.
The same measure, in the same setting: the same measure for `COc1cc(C(=O)N(Cc2ccco2)c2ccc(O)cc2)cc(OC)c1OC` [CBK266315]: 102%.
With `CCOC(=O)Nc1ccc(S(=O)(=O)Nn2cnnc2)cc1` [CBK262138], the viability at 28.5 h, 10 µM stood at 105%.
The same measure, in the same setting: as for `CC(C)CC(NC(=O)c1ccco1)c1nc2cccnc2n1C` (centres unmarked) [CBK283827], the figure is 88.8%; as for `Cc1nc(N/N=C/c2ccc3c(c2)OCO3)sc1C` [CBK263098], 106%; as for `COc1ccccc1N1CC(C(=O)Nc2ccc(C(=O)O)cc2)CC1=O` (centres unmarked) [CBK269606], 84.9%.
As to `O=C(Cc1cccs1)N1CCC(c2cc3ncccc3[nH]2)CC1` [CBK283393], the viability at 28.5 h, 10 µM amounted to 86.5%.
Consider `c1ccc(C(CC2CCCCC2)NCc2cccnc2)cc1` (centres unmarked) [CBK073816], for which the viability at 28.5 h, 10 µM came out at 96.3%.
Same read-out and setting: the same measure for `COc1ccc(C(=O)Nc2ccccc2N2CCN(C)CC2)cc1Cl` [CBK268001]: 90.5%; for `COc1ccc2cc(CNc3ccc(CCc4nc5ccccc5n4C)cc3)c(=O)[nH]c2c1` [CBK286159]: 103%.
The same measure, in the same setting: as for `CN1CCN(CCCN2C(=O)CSC2c2cccc([N+](=O)[O-])c2)CC1` (centres unmarked) [CBK278237C], the figure is 99.9%; as for `N#C/C(=C\c1ccc(-c2ccc(S(N)(=O)=O)cc2)o1)c1nc2ncc(Br)cc2[nH]1` [CBK266288], 97.6%; as for `Oc1ccc(/C=N/n2c(S)nnc2C(F)(F)F)cc1` [CBK265206], 98.6%.
On to `O=C(O)c1cccc(-c2cc(N3CCN(Cc4cccnc4)CC3)n3nccc3n2)c1` [CBK037080], for which the viability at 28.5 h, 10 µM was determined as 106%.
On the same count and under the same terms, the same measure for `Cn1ccc(C(=O)NCc2cccnc2OCC(F)(F)F)cc1=O` [CBK305574]: 99.9%.
The same measure, in the same setting: as for `Cc1ccn2c(-c3csc(Nc4ccc(S(N)(=O)=O)cc4)n3)c(C)nc2c1` [CBK263304B], the figure is 63.7%; as for `O=C(NCCNC(=O)c1ccccc1I)c1ccccn1` [CBK269357], 89.4%.
Same read-out and setting: the same measure for `Cc1cc(C)c(OCCNC(C)(C)C)c(Cl)c1` [CBK262713C]: 93.2%; for `COc1ccc(S(=O)(=O)N(CC(=O)N2CCC(C(N)=O)CC2)c2ccccc2)cc1` [CBK265301]: 108%; for `Sc1nnc(CSCc2ccccc2Cl)n1-c1ccccc1` [CBK265219]: 100%.
As for `CCOC(=O)CN1CCC(Oc2cncc(OCc3ccc(Cl)c(Cl)c3)n2)C1` (centres unmarked) [CBK084432], the viability at 28.5 h, 10 µM came to 91.7%.
Same read-out and setting: as for `COc1cc(-c2cncc(N(C)CCN(C)C)n2)cc(OC)c1OC` [CBK065312], the figure is 90.5%; as for `CC1(OCCN2CCOCC2)SC(NC2CC3CCC2C3)=NC1=O` (centres unmarked) [CBK116313], 83.8%; as for `C=C(C)c1cccc(C(C)(C)NC(=O)N2CCC(C(=O)NC(c3ccc(OC)nc3)c3ccccc3C)CC2)c1` (centres unmarked) [CBK074871], 92.2%.
Still for that read-out and setting: the same measure for `COC(=O)/C=C/c1cn(C2CC(O)C(CO)O2)c(=O)[nH]c1=O` (centres unmarked) [CBK201244]: 105%; for `CC(C)(C)OC(=O)N1CCC[C@@H](C(=O)c2cccs2)C1` [CBK284310]: 82.1%.
Regarding `CC12CN3CC(C)(CN(C1)C3c1ccc(O)cc1)C2O` (centres unmarked) [CBK262663], the viability at 28.5 h, 10 µM was 107%.
As for `O=C(CN1C(=O)N2CCN=C2c2ccccc21)N1CCCC1` [CBK283945], the viability at 28.5 h, 10 µM came out at 91.9%.
Take `CNC(=O)CCc1ccccc1NC(=O)NCc1cnc(SC)n1C` [CBK307507]: the viability at 28.5 h, 10 µM was determined as 101%.
As for `O=c1sn(-c2ccccc2C(F)(F)F)c(=O)n1CC1CC1` [CBK113675], the viability at 28.5 h, 10 µM turned out to be 82.8%.
As to `Cc1ccc(-c2nc(C)c(C(=O)NCc3ccnc(-n4ccnc4)c3)s2)o1` [CBK298322], the viability at 28.5 h, 10 µM is 105%.
For the compound `Cc1cc(S(=O)(=O)CC#N)c(C)cc1Cl` [CBK018672], the viability at 28.5 h, 10 µM was found to be 89.2%.
Take `O=C(c1cccc(C(=O)N(Cc2ccccc2)c2ccccn2)c1)N(Cc1ccccc1)c1ccccn1` [CBK091794]: the viability at 28.5 h, 10 µM was found to be 111%.
Same read-out and setting: as for `CCN(CCn1cccn1)c1nc2nonc2nc1NC1CCCC1` [CBK307589], the figure is 106%; as for `FC(F)(F)c1ccnc(OCCN2CCOCC2)c1` [CBK113286], 97.1%.
For `CC(C)c1nc(NCc2nnc(C(C)C)n2C)nc(N(C)C)n1` [CBK306402], the viability at 28.5 h, 10 µM was found to be 104%.
Turning to `Nc1ncc(-c2cccc(/C=C/C(=O)O)c2)nc1NCCCO` [CBK063887], the viability at 28.5 h, 10 µM amounted to 103%.
On the same count and under the same terms, as for `CC(C)n1nccc1C(=O)N1CCCC(c2cc3cccnc3[nH]2)C1` (centres unmarked) [CBK284930], the figure is 99.3%.
On the same count and under the same terms, the same measure for `Oc1cc(-c2ccccc2)nc(NNc2ccccc2)n1` [CBK261716]: 96.6%; for `CCn1nc(C(C)C)cc1C(=O)NCCN1CCC(C)CC1` [CBK282107]: 85.6%.
Take `Cc1nc(CC(=O)NC(Cc2ccsc2)c2nccs2)cs1` (centres unmarked) [CBK282823]: the viability at 28.5 h, 10 µM came to 87.5%.
`CCCC(=O)N1CCC(c2cc(C(F)F)c3c(C)noc3n2)CC1` [CBK285304]: the viability at 28.5 h, 10 µM is 102%.
Take `COc1cncc(-c2cncc(N[C@H](CO)C(C)C)n2)c1` [CBK065329]: the viability at 28.5 h, 10 µM was found to be 106%.
As for `CC(C)[C@@H](CO)Nc1cncc(-c2ccc(F)cc2F)n1` [CBK065875], the viability at 28.5 h, 10 µM came to 98.5%.
Regarding `O=C(O)c1nccnc1C(=O)N1CCC(O)(c2ccc(Cl)cc2)CC1` [CBK286621], the viability at 28.5 h, 10 µM came to 87.6%.
Same read-out and setting: the same measure for `CCOc1ccc(/C=C2/NC(=O)NC2=O)cc1Br` [CBK098031]: 91.6%; for `O=C1CC(C(=O)NCc2ccc(-c3csnn3)cc2)c2ccccc21` (centres unmarked) [CBK149301]: 93.1%.
Turning to `CC(C)[C@@H](CO)Nc1nc(-c2cncnc2)cnc1N` [CBK063735], the viability at 28.5 h, 10 µM was determined as 99.4%.
With `CC(NC(=O)C1CCN(Cc2ncc[nH]2)CC1)c1ccc(F)cc1` (centres unmarked) [CBK148037], the viability at 28.5 h, 10 µM turned out to be 97%.
Still for that read-out and setting: the same measure for `CN1CCN(C(=O)c2ccc(-c3cnc(N)c(-c4ccc(O)cc4)n3)cc2F)CC1` [CBK200421]: 90.6%; for `COc1ccc(-c2cc[nH]n2)c(OC)c1OC` [CBK022957C]: 82%.
Still for that read-out and setting: the same measure for `Cc1sc2nc(C(C)C)n(C3CCNCC3)c(=O)c2c1C` [CBK282407]: 100%.
Still for that read-out and setting: as for `O=S(=O)(NCC(Nc1cccc2ccccc12)c1ccccc1)c1ccc(Cl)cc1` (centres unmarked) [CBK264087], the figure is 90.3%; as for `O=c1[nH]nc(SCc2csc(COc3ccc(Cl)cc3)n2)n1C1CC1` [CBK295146], 87.9%.
Regarding `COc1ccc(/C=C(\C)C(=O)Nc2c(OC)cc(F)cc2OC2CCNCC2)cc1OC` [CBK050353T], the viability at 28.5 h, 10 µM was 98.6%.
On to `c1ccc2cc(CCN3CCN(c4nccnc4OCCN4CCOCC4)CC3)ccc2c1` [CBK082911T], for which the viability at 28.5 h, 10 µM stood at 87.6%.
Same read-out and setting: as for `Cc1cc(CNC(=O)[C@@H]2Cc3cn(C)c4cccc(c34)[C@H](CC(C)C)N2)no1` [CBK289420], the figure is 104%.
Same read-out and setting: as for `CC(C)(C)NC(=O)COc1ccc(CNc2nc[nH]n2)cc1` [CBK288179], the figure is 89.3%; as for `O=C(O)C1CCN(c2c(-c3ccccc3)c3cc(Cl)ccc3[nH]c2=O)CC1` [CBK287198], 87.3%.
Same read-out and setting: as for `O=C(Cn1cnc2ccc(F)cc2c1=O)N1CCOC2CCCCC21` (centres unmarked) [CBK253316], the figure is 80.5%.
`Cc1nnc2nc(-c3cccc(Cl)c3Cl)[nH]n12` [CBK263845]: the viability at 28.5 h, 10 µM was 94.2%.
On the same count and under the same terms, as for `NC(=O)C[N+]1(CC#CC(O)(c2ccccc2)c2ccccc2)CCCC1` [CBK262703I], the figure is 95.3%.
In the case of `Cc1nnc(SCC(=O)N/N=C/c2ccc(-c3ccc(Br)cc3)o2)n1-c1ccccc1` [CBK262769], the viability at 28.5 h, 10 µM was 104%.
In the case of `Cc1cc(F)c(S(N)(=O)=O)cc1NC(=O)c1ccc(C(F)(F)F)cc1` [CBK051448], the viability at 28.5 h, 10 µM turned out to be 104%.
Same read-out and setting: the same measure for `O=C(CSc1nnc(-c2ccccc2O)o1)c1ccc(Cl)cc1` [CBK068032]: 98.4%; for `Cc1ccccc1COc1cccc2c1CCCC2` [CBK002562]: 98.2%.
On the same count and under the same terms, as for `CC(NCCN1CCOCC1)=C1C(=O)c2ccccc2C1=O` [CBK262691], the figure is 96.1%; as for `COc1cc(NC(=O)c2ccc3c(c2)C(=O)N(c2ccccc2OC)C3=O)c(C(=O)O)cc1OC` [CBK262787], 95.1%; as for `CCN(CC)C(=O)c1[nH]c2ccccc2c1NS(=O)(=O)c1cc(Br)ccc1OC` [CBK050113], 92.6%.
Take `COc1ccc(-c2nnc(SCC(=O)O)n2C)cc1` [CBK287232]: the viability at 28.5 h, 10 µM is 93%.
The same measure, in the same setting: the same measure for `CN(C)CCCNc1cc(Cl)c(S(=O)(=O)N2CCCCC2)cc1C(=O)O` [CBK265784]: 95.5%; for `Clc1cc(Cl)cc(-c2cn3ccnc3c(NCc3ccncc3)n2)c1` [CBK066664]: 94.3%.
On the same count and under the same terms, as for `CC(C)(C)NC(=O)c1nn2c(c1Br)NC(c1cccs1)CC2C(F)(F)F` (centres unmarked) [CBK307175], the figure is 84.9%; as for `CCc1csc(C2CN3CCCC3CO2)n1` (centres unmarked) [CBK304793], 89.4%.

The same data set, now with this note: human, hela cells, % viability, bulk resorufin, single well.
Consider `O=C(O)COc1ccc(/C=C2\C(=O)NC(=O)N(c3ccc(OCc4ccccc4)cc3)C2=O)cc1` [CBK265449], for which the viability at 28.5 h, 10 µM was determined as 83.6%.
